Reference: US11109593B2, “Isoxazolin-5-one derivative and herbicide containing same as active ingredient” (HOKKO CHEMICAL INDUSTRY CO., LTD., priority 2017, dated 2021)

How the values were obtained:
Format in all cases: in vivo
[1] = system: Scirpus juncoides; experiment: Test Example 1: herbicidal effect test by treatment of rice paddy soil (immediately after seeding); conditions: 120 g/10a active ingredient, dry weight vs untreated area, 14 days after treatment
Experimental: (§1) Herbicidal Effect Test by Treatment of Rice Paddy Soil
(§2) Wagner pots with an area of 1/10000 ares were filled with a paddy soil, and after adding water, a compound fertilizer (N:P:K=17:17:17) was added, followed by soil puddling. Then, Echinochloa crus-galli, broad leaf weeds (Lindernia pyxidaria and Monochoria vaginalis) and Scirpus juncoides, 30 seeds each, were sown in a depth of 0 to 1 cm. Water was poured immediately after seeding, and the water depth was kept at about 3 cm. The subsequent management was conducted in a glass greenhouse. Immediately after that, emulsions prepared using the compounds in Table 3 below according to Formulation Example 5 were diluted with water, and a certain amount of the water-diluted agent solutions were dropped. The converted amount of the applied active ingredient corresponded to 120 g per 10 ares.
(§3) This test was conducted in a double system per one agent solution concentration area, and the herbicidal rates (%) were determined by the following equation (Math. 1) on 14 days after the treatment with the agents. Herbicidal Rate (%)={1-(Average Dry Weight (g) of Plant of Treated Area)/(Average Dry Weight (g) of Plant of Untreated Area)}×100 [Math. 1]
(§4) The compound numbers in Table 3 are the same as those in Table 1 and Table 2 above.

[2] = system: Echinochloa crus-galli; experiment: as above; conditions: 120 g/10a active ingredient, dry weight vs untreated area, 14 days after treatment
Experimental: as §1, §2, §3, §4

[3] = system: broad leaf weeds (Lindernia pyxidaria and Monochoria vaginalis); experiment: as above; conditions: 120 g/10a active ingredient, dry weight vs untreated area, 14 days after treatment
Experimental: as §1, §2, §3, §4

[4] = system: Scirpus juncoides; experiment: Test Example 2: herbicidal effect test by treatment during growing period in paddy rice cultivation (seven days after seeding); conditions: 120 g/10a active ingredient, assessed 14 days after treatment, dry weight vs untreated area
Experimental: as §3
(§5) Herbicidal Effect Test by Treatment During Growing Period in Paddy Rice Cultivation
as §2, with “was mixed,” for “was added,”, “greenhouse. Emulsions” for “greenhouse. Immediately after that, emulsions”, “Table 4” for “Table 3”, “with water seven days after seeding,” for “with water,”, “ares. The test was conducted in a double system per one agent solution concentration area, and the herbicidal rates (%) were determined by the equation (Math. 1) on 14 days after the treatment with the agents. […] The compound numbers in Table 4 are the same as those in Table 1 and Table 2 above.” for “ares.”

[5] = system: Echinochloa crus-galli; experiment: as above; conditions: 120 g/10a active ingredient, assessed 14 days after treatment, dry weight vs untreated area
Experimental: as §3, §5
as §2, with “was mixed,” for “was added,”, “greenhouse. Emulsions” for “greenhouse. Immediately after that, emulsions”, “Table 4” for “Table 3”, “with water seven days after seeding,” for “with water,”, “ares. The test was conducted in a double system per one agent solution concentration area, and the herbicidal rates (%) were determined by the equation (Math. 1) on 14 days after the treatment with the agents. […] The compound numbers in Table 4 are the same as those in Table 1 and Table 2 above.” for “ares.”

[6] = system: broad leaf weeds (Lindernia pyxidaria and Monochoria vaginalis); experiment: as above; conditions: 120 g/10a active ingredient, assessed 14 days after treatment, dry weight vs untreated area
Experimental: as §3, §5
as §2, with “was mixed,” for “was added,”, “greenhouse. Emulsions” for “greenhouse. Immediately after that, emulsions”, “Table 4” for “Table 3”, “with water seven days after seeding,” for “with water,”, “ares. The test was conducted in a double system per one agent solution concentration area, and the herbicidal rates (%) were determined by the equation (Math. 1) on 14 days after the treatment with the agents. […] The compound numbers in Table 4 are the same as those in Table 1 and Table 2 above.” for “ares.”

| SMILES | Herbicidal rate (%) Scirpus juncoides [1] [%] | Herbicidal rate (%) Echinochloa crus-galli [2] [%] | Herbicidal rate (%) Lindernia pyxidaria [3] [%] | Herbicidal rate (%) Monochoria vaginalis [3] [%] | Herbicidal rate (%) Scirpus juncoides [4] [%] | Herbicidal rate (%) Echinochloa crus-galli [5] [%] | Herbicidal rate (%) Lindernia pyxidaria [6] [%] | Herbicidal rate (%) Monochoria vaginalis [6] [%] |
| --- | --- | --- | --- | --- | --- | --- | --- | --- |
| Cc1c(Cc2ccccc2N(S(=O)(=O)C(F)(F)F)S(=O)(=O)C(F)(F)F)c(=O)on1CC(F)(F)c1ccccc1 [Compound 1-1047] | 90 | 90 | 100 | 80 | 80 | 80 | 90 | 80 |
| Cc1c(Cc2ccccc2N(S(=O)(=O)C(F)(F)F)S(=O)(=O)C(F)(F)F)c(=O)on1CCc1ccccc1 [Compound 1-1043] | 90 | 100 | 100 | 100 | 90 | 90 | 100 | 100 |
| CC(C)n1oc(=O)c(Cc2ccccc2N(S(=O)(=O)C(F)(F)F)S(=O)(=O)C(F)(F)F)c1C1CC1 [Compound 1-84] | 80 | 80 | 70 | 70 | 70 | 40 | 40 | 40 |
| Cc1c(Cc2ccccc2NS(=O)(=O)C(F)(F)F)c(=O)on1Cc1ccc(Br)cc1 [Compound 1-187] | 80 | 90 | 90 | 90 | 70 | 40 | 70 | 80 |
| Cc1c(Cc2ccccc2NS(=O)(=O)C(F)(F)F)c(=O)on1C(C)c1cccc(Cl)c1 (stereo not shown) [Compound 1-206] | 90 | 90 | 100 | 100 | 80 | 60 | 80 | 90 |
| Cc1c(Cc2ccccc2N(S(=O)(=O)C(F)(F)F)S(=O)(=O)C(F)(F)F)c(=O)on1C(C)c1ccc(F)cc1 (stereo not shown) [Compound 1-1031] | 100 | 100 | 100 | 100 | 100 | 90 | 100 | 100 |
| Cc1c(Cc2ccccc2NS(=O)(=O)C(F)(F)F)c(=O)on1Cc1ccc(F)cc1F [Compound 1-199] | 90 | 100 | 100 | 100 | 80 | 90 | 80 | 80 |
| Cc1c(Cc2ccccc2NS(=O)(=O)C(F)(F)F)c(=O)on1C(C)c1ccc(OC(F)(F)F)cc1 (stereo not shown) [Compound 1-209] | 70 | 90 | 60 | 60 | 90 | 40 | 60 | 80 |
| Cc1c(Cc2ccccc2N(S(=O)(=O)C(F)(F)F)S(=O)(=O)C(F)(F)F)c(=O)on1Cc1ccc(F)cc1Cl [Compound 1-1028] | 40 | 80 | 80 | 90 | 0 | 0 | 40 | 40 |
| Cc1c(Cc2cc(F)ccc2NS(=O)(=O)C(F)(F)F)c(=O)on1Cc1ccccc1 [Compound 1-31] | 90 | 90 | 90 | 80 | 70 | 50 | 60 | 80 |
| Cc1c(Cc2ccccc2N(S(=O)(=O)C(F)(F)F)S(=O)(=O)C(F)(F)F)c(=O)on1C(C)c1cccc(Cl)c1 (stereo not shown) [Compound 1-1033] | 90 | 90 | 100 | 100 | 80 | 70 | 80 | 80 |
| COc1ccc(Cn2oc(=O)c(Cc3ccccc3N(S(=O)(=O)C(F)(F)F)S(=O)(=O)C(F)(F)F)c2C)cc1 [Compound 1-1022] | 90 | 90 | 100 | 100 | 90 | 70 | 100 | 100 |
| Cc1c(Cc2ccccc2NS(=O)(=O)C(F)(F)F)c(=O)on1CCOCc1ccccc1 [Compound 1-238] | 80 | 100 | 80 | 80 | 80 | 80 | 40 | 80 |
| C=CCn1oc(=O)c(Cc2ccccc2NS(=O)(=O)C(F)(F)F)c1C [Compound 1-135] | 90 | 90 | 90 | 60 | 90 | 80 | 40 | 60 |
